The test system of this experiment is platelet aggregation. Put plainly: Ex vivo platelet aggregation induced with ADP or AA. Format: in vivo, beagle dogs. Here is the method: Whole blood (10 ml) was drawn from a right femoral vein cannula into a plastic syringe containing 3.7% sodium citrate as the anticoagulant (1:100 volume ratio of citrate to blood). A whole blood cell count was determined with an H-2000 cell counter (Texas International Laboratories, Inc., Culver City, Calif.). Platelet-rich plasma (PRP), the supernatant present after centrifugation of whole blood at 100×g for 10 min, was diluted with Platelet-poor plasma (PPP) to achieve a platelet count of approximately […]. PPP was prepared by centrifuging the remaining blood at 1,500×g for 10 min and discarding the bottom cellular layer. Ex vivo platelet aggregation was assessed by established spectrophotometric methods with the use of a four-channel aggregometer (BioData PAP-4; BioData Corp., Horsham, Pa.) by recording the increase in light transmission through a stirred suspension of PRP maintained at 37° C. Aggregation was induced with ADP (20 μM) or AA (0.65 mM). A subaggregatory concentration of epinephrine (550 nM) was used to prime the platelets before addition of the agonists to induce platelet aggregation. Values for platelet aggregation are expressed as percentage of light transmission standardized to PRP and PPP samples yielding 0 and 100% light transmission, respectively.

Molecules are shown by their SMILES.

Results on one compound are retold here after patent publication US8063101B2, “Carotenoid analogs and derivatives for the prevention of platelet aggregation” (Cardax Pharmaceuticals, Inc., priority 2007, dated 2011).

Consider `CC1=C(/C=C/C(C)=C/C=C/C(C)=C/C=C/C=C(C)/C=C/C=C(C)/C=C/C2=C(C)C(=O)C(OC(=O)CCC(=O)O)CC2(C)C)C(C)(C)CC(OC(=O)CCC(=O)O)C1=O` (centres unmarked) [DDA, Disodium disuccinate astaxanthin], for which the “ex vivo platelet aggregation responses to AA and ADP” value (DDA 10, 30 or 50 mg/kg, ADP 20 μM or AA 0.65 mM) was “dose dependently attenuated”. Moreover, the “ex vivo platelet aggregation” value (DDA 30 and 50 mg/kg doses) is reported as “Significant reductions”.
